The values that follow come from patent US11286268B1, “EIF4E-inhibiting compounds and methods” (EFFECTOR THERAPEUTICS, INC., priority 2019, dated 2022).

The target of the assay is recombinant eIF4E (Homo sapiens (Human), UniProt P06730). The experiment in a line: Fluorescence polarization competition assay for eIF4E binding potency. As for the experimental part: Compounds were screened for eIF4E binding potency using a fluorescence polarization competition assay. All binding reactions were performed in fluorescence polarization buffer (FPB) containing 20 mM Tris pH 7.5, 100 mM NaCl, 1 mM DTT, and 0.02% Tween-20. Final binding reactions contained 75 nM recombinant eIF4E (Beryllium, custom order), 20 nM EDA-m^7GDP-ATTO-550 (Jena Bioscience, NU-827-550) and varying concentrations of the inhibitory compound of interest. Final DMSO concentration in each reaction was 1%.
Chain of recombinant eIF4E (P06730 whole entry): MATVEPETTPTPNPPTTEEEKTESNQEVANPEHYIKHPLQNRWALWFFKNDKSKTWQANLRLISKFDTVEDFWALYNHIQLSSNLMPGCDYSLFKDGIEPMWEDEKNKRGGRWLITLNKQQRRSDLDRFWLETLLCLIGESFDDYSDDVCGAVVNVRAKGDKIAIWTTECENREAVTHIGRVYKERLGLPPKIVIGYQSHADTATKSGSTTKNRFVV
eIF4E protein was pre-incubated with EDA-m^7GDP-ATTO-550 in FPB at 2× concentrations for 5 minutes prior to the addition of compounds. Compounds (100×) were prepared using 3-fold serial dilutions in 100% DMSO, and subsequently diluted 1:50 in FPB to produce 2× stocks. 50 μl of 2× eIF4E/EDA-m^7GDP-ATTO-550 were transferred to the wells of a 96-well half-area black flat bottom polystyrene plate. 50 μl of 2× test compound were added, and binding reactions were allowed to equilibrate for 30 minutes at room temperature while protected from light. The fluorescent polarization signal was detected using a Victor 2 multi-label counter (Perkin Elmer) and the concentration necessary to achieve inhibition of eIF4E/EDA-m^7GDP-ATTO-550 binding by 50% (IC50) was calculated using data from an 8-point compound dilution series.
In Table 4A, IC50 values of less than 0.05 μM are labelled as “+++”, from 1 to 0.05 μM are labelled as “++”, and greater than 1 μM are labelled as “+”. ND=not determined.
(In general: In fluorescence polarisation assays a small probe gives low polarisation when free and higher when bound to something large.)

Setting [1] is: fluorescence polarization competition, 75 nM recombinant eIF4E, 20 nM EDA-m7GDP-ATTO-550, IC50 class, read-out: elF4E FP.
Where [2] appears, read: inhibition of eIF4E/EDA-m7GDP-ATTO-550 binding, calculated IC50 values, Table 4B, read-out: IC50.
Setting [3] is: inhibition of eIF4E/EDA-m7GDP-ATTO-550 binding by 50%, Table 4B calculated values, read-out: IC50.

Structures are written as SMILES. pIC50: −log10 of the molar value. Read-outs that look alike come from different tables or passages of the source.

As to `Cc1cc(-c2cc(Cl)ccc2OCCn2c(C)nc3cc(C(F)(F)F)c(OCC(F)F)c(C#N)c3c2=O)c2scc(C(=O)O)c2n1` [compound 1197], the pIC50 was greater than 7.30 under setting [1] and 8.23 under setting [2].

As to `Cc1cc(-c2cc(Cl)ccc2OCCn2c(C)nc3cncc(C#N)c3c2=O)c2scc(C(=O)O)c2n1` [compound 597], the pIC50 reads like this: under setting [1], greater than 7.30; under setting [3], 7.33.

On to `CC(=O)c1csc2c(-c3cc(Cl)ccc3C#CCn3c(C)nc4cnc(N(C)[C@H]5C[C@H]6CC[C@@H](C5)N6CC(F)F)c(C#N)c4c3=O)ccnc12` [compound 1406], for which, under setting [2], the pIC50 was 7.58.

Consider `Cc1nc2cc(C(F)(F)F)cc(C#N)c2c(=O)n1CCOc1ccc(Cl)cc1-c1cccc(C(=O)O)c1` [compound 51], for which the pIC50 under setting [1] is greater than 7.30 and the pIC50 under setting [3] was 7.67.

Turning to `Cc1nc2cnc(N(C)C3CCN(CC(C)(F)F)CC3)c(C#N)c2c(=O)n1CC#Cc1ccc(Cl)cc1-c1ccnc2c(C(N)=O)csc12` [compound 1596], the pIC50 under setting [2] is 6.18.

Regarding `Cc1cc(-c2cc(Cl)ccc2OCCn2c(C)nc3cnc(N4CC(OC(F)F)C4)c(C#N)c3c2=O)c2scc(C(=O)O)c2n1` [compound 1041], the pIC50 runs as follows: under setting [1], greater than 7.30; under setting [3], 8.21.

With `CCOc1c(C(F)(F)F)cc2nc(C)n(CCOc3ccc(Cl)cc3-c3cc(C)nc4c(C(=O)O)csc34)c(=O)c2c1C#N` [compound 1073], the pIC50 by setting is: under setting [1], 6.00 to 7.30; under setting [3], 7.24.

With `Cc1nc2cc(C(F)(F)F)c(N3CCN(C)CC3)c(C#N)c2c(=O)n1CCOc1ccc(Cl)cc1-c1cc(CF)nc2ccsc12` [compound 1253], the pIC50 under setting [2] was 8.08.

On to `Cc1cc(-c2cc(Cl)ccc2OCCn2c(C)nc3cnc(N4[C@@H]5C[C@H]4CN(C)C5)c(C#N)c3c2=O)c2sc(C)c(C(=O)O)c2n1` [compound 1203], for which the pIC50 by setting is: under setting [1], greater than 7.30; under setting [2], 8.04.

Regarding `N#Cc1cc2c(=O)n(CCOc3ccc(Cl)cc3-c3ccnc(C(=O)O)c3)cnc2cn1` [compound 29], the pIC50 runs as follows: under setting [1], 6.00 to 7.30; under setting [3], 6.68.

Regarding `Cc1cc(-c2cc(Cl)ccc2OCCn2c(C)nc3cnc(C4CC4)c(C#N)c3c2=O)c2scc(C(=O)O)c2c1C` [compound 771], the pIC50 runs as follows: under setting [1], greater than 7.30; under setting [3], 7.89.

Consider `Cc1nc2cnc(N3CCC4(CC3)CN(CC(F)F)C4)c(C#N)c2c(=O)n1CC#Cc1ccc(Cl)cc1-c1ccnc2c(C(=O)NS(=O)(=O)C3COC3)csc12` [compound 1408], for which the pIC50 under setting [2] is 7.75.

For the compound `Cc1cc(-c2cc(Cl)ccc2OCCn2c(C)nc3cnc(N4CC(N(C)C)C4)c(C#N)c3c2=O)c2sc(C)c(C(=O)O)c2n1` [compound 1091], the pIC50 is 6.00 to 7.30 under setting [1] and 7.04 under setting [3].

As for `Cc1cc(-c2cc(Cl)ccc2OCCn2c(C)nc3cc(CN(C)C)c(OC(F)F)c(C#N)c3c2=O)c2scc(C(=O)NS(C)(=O)=O)c2n1` [compound 451], the pIC50 is, setting by setting: under setting [1], greater than 7.30; under setting [3], 7.44.

As for `Cc1nc2cc(C(F)(F)F)cc(C#N)c2c(=O)n1CCOc1ccc(Cl)cc1-c1cccc2c(C(=O)O)csc12` [compound 402], the pIC50 is, setting by setting: under setting [1], 6.00 to 7.30; under setting [3], 6.91.

For the compound `Cc1sc2c(-c3cc(Cl)ccc3OCCn3c(C)nc4cc(C(F)(F)F)c(N5CCN(C)CC5)c(C#N)c4c3=O)ccnc2c1C(=O)O` [compound 1093], the pIC50 runs as follows: under setting [1], 6.00 to 7.30; under setting [3], 7.23.

Take `Cc1sc2c(-c3cc(Cl)ccc3OCCn3c(C)nc4cc(C(F)(F)F)c(CN(C)C)c(C#N)c4c3=O)ccnc2c1C(=O)O` [compound 556]: the pIC50 reads like this: under setting [1], greater than 7.30; under setting [3], 7.64.

As for `Cc1nc2cc(C(F)(F)F)c(Cl)c(C#N)c2c(=O)n1CCOc1cc(F)c(Cl)cc1-c1ccnc2c(C(=O)O)csc12` [compound 505], the pIC50 reads like this: under setting [1], greater than 7.30; under setting [3], 7.36.

In the case of `Cc1sc2c(-c3cc(Cl)ccc3OCCn3c(C)nc4cc(S(C)(=O)=O)c(N5CCN(C)CC5)c(C#N)c4c3=O)ccnc2c1C(=O)O` [compound 1294], the pIC50 under setting [2] is 7.25.

Consider `COC(=O)c1csc2c(-c3cc(Cl)ccc3OCCn3c(C)nc4cc(C(F)(F)F)c(CN(C)C)c(C#N)c4c3=O)ccnc12` [compound 1907], for which the pIC50 under setting [2] is 6.39.

On to `Cc1nc2cnc(OC3CCN(CC(F)(F)F)CC3)c(C#N)c2c(=O)n1CCOc1ccc(Cl)cc1-c1ccnc2c(C(=O)O)csc12` [compound 820], for which the pIC50 is greater than 7.30 under setting [1] and 7.87 under setting [3].

As for `Cc1nc2cnc(N(C)C3CCN(C4CC(F)(F)C4)CC3)c(C#N)c2c(=O)n1CC#Cc1ccc(Cl)cc1-c1ccnc2c(C(=O)NS(=O)(=O)C3COC3)csc12` [compound 1811], under setting [2], the pIC50 is 7.90.

`Cc1nc2cncc(SCCN(C)C)c2c(=O)n1CCOc1ccc(Cl)cc1-c1ccnc2c(C(=O)O)csc12` [compound 1331]: the pIC50 under setting [2] was 7.04.

Turning to `Cc1nc2cnc(N3CCN(C)C(CC#N)C3)c(C#N)c2c(=O)n1CCOc1ccc(Cl)cc1-c1ccnc2c(C(=O)O)csc12` (stereo not shown) [compound 1342], under setting [2], the pIC50 was 7.52.

For `N#Cc1cc2c(=O)n(CCOc3ccc(C(F)F)cc3-c3cccc(C(=O)O)c3)cnc2cn1` [compound 126], the pIC50 under setting [1] is less than 6.00 and the pIC50 under setting [3] was 5.08.

Regarding `Cc1nc2cnc(N(C)C3CCN(CC4(C(F)(F)F)CCC4)CC3)c(C#N)c2c(=O)n1CC#Cc1ccc(Cl)cc1-c1ccnc2c(C(=O)O)csc12` [compound 1588], the pIC50 under setting [2] is 7.58.

In the case of `Cc1nc2cnc(N(C)C3CCN(CC(F)(F)F)CC3)c(C#N)c2c(=O)n1CC#Cc1ccc(Cl)cc1-c1ccnc2c(C(=O)NS(=O)(=O)CF)csc12` [compound 1669], the pIC50 under setting [2] is 8.04.

Take `Cc1nc2cnc(N(C)C3CCN(C4CC(F)(F)C4)CC3)c(C#N)c2c(=O)n1CC#Cc1ccc(Cl)cc1-c1ccnc2c(C(=O)NS(C)(=O)=O)csc12` [compound 1589]: the pIC50 under setting [2] is 7.91.

`O=C(O)c1cccc(-c2cc(Cl)ccc2OCCc2cnc(C(F)F)c3nc(Nc4ccccc4)[nH]c(=O)c23)c1` [compound 173]: the pIC50 is 6.00 to 7.30 under setting [1] and 6.85 under setting [3].

On to `COCc1cc(F)c2cc(C)n(CCOc3ccc(Cl)cc3-c3ccnc4c(C(=O)O)csc34)c(=O)c2c1C#N` [compound 533], for which the pIC50 is 6.00 to 7.30 under setting [1] and 7.20 under setting [3].

Turning to `N#Cc1ccc(C#N)c2c(=O)n(CCOc3ccc(Cl)cc3-c3cccc(C(=O)O)c3)cnc12` [compound 1990], the pIC50 under setting [2] was 7.24.

On to `Cc1nc2cc(Cl)c(F)c(C#N)c2c(=O)n1CCOc1ccc(Cl)cc1-c1ccnc2c(C(=O)O)csc12` [compound 242], for which the pIC50 runs as follows: under setting [1], greater than 7.30; under setting [3], 7.69.

On to `CNc1ncc2nc(C)n(CCOc3ccc(Cl)cc3-c3cc(C)nc4c(C(=O)O)csc34)c(=O)c2c1C#N` [compound 985], for which the pIC50 was greater than 7.30 under setting [1] and 8.17 under setting [3].

`Cc1cc(-c2cc(Cl)ccc2OCCn2c(C)nc3c(F)cc(C(F)F)c(C#N)c3c2=O)c2scc(C(=O)NS(=O)(=O)C(F)(F)F)c2n1` [compound 593]: the pIC50 is greater than 7.30 under setting [1] and 7.48 under setting [3].

Regarding `Cc1cc(-c2cc(Cl)ccc2OCCn2c(C)nc3cc(C(F)(F)F)c(N4CCSCC4)c(C#N)c3c2=O)c2scc(C(=O)O)c2n1` [compound 992], the pIC50 under setting [1] was 6.00 to 7.30 and the pIC50 under setting [3] was 7.25.

`Cc1nc2cnc(N3CC4CC3CN4C)c(C#N)c2c(=O)n1CCOc1ccc(Cl)cc1-c1ccnc2c(C(=O)O)csc12` (stereo not shown) [compound 1645]: the pIC50 under setting [2] was 7.63.
